Measured values: patent US20090304692A1, “TRIAZINE COMPOUNDS AS PI3 KINASE AND MTOR INHIBITORS” (Wyeth, priority 2008, published 2009)
Like-named read-outs stand apart in the source and are kept apart here.

Legend:
[1] = molecular target: Human mTOR (FLAG-TOR) (Homo sapiens, UniProt P42345); experiment: mTOR kinase assay (DELFIA format, purified enzyme); type: biochemical; conditions: read-out: IC50 mTOR
[2] = tested on: human breast MDA-MB-361 tumor cell line; experiment: In vitro cell culture growth assay (MTS), MDA-MB-361; type: cell-based; conditions: Homo sapiens, three days after drug treatment, MDA-MB-361 cells, read-out: IC50 MDA-MB-361
[3] = tested on: human prostate PC3-mm2 tumor cell line; experiment: In vitro cell culture growth assay (MTS), PC3-mm2; type: cell-based; conditions: Homo sapiens, PC3MM2, 72 h, three days after drug treatment, PC3-mm2 cells, read-out: IC50 PC3-mm2
[4] = molecular target: PI3K-α (Homo sapiens, UniProt P42336); experiment: PI3K-alpha fluorescence polarization assay; conditions: read-out: IC50 PI3Kα
PI3K-α, sequence (P42336 whole entry, species assumed): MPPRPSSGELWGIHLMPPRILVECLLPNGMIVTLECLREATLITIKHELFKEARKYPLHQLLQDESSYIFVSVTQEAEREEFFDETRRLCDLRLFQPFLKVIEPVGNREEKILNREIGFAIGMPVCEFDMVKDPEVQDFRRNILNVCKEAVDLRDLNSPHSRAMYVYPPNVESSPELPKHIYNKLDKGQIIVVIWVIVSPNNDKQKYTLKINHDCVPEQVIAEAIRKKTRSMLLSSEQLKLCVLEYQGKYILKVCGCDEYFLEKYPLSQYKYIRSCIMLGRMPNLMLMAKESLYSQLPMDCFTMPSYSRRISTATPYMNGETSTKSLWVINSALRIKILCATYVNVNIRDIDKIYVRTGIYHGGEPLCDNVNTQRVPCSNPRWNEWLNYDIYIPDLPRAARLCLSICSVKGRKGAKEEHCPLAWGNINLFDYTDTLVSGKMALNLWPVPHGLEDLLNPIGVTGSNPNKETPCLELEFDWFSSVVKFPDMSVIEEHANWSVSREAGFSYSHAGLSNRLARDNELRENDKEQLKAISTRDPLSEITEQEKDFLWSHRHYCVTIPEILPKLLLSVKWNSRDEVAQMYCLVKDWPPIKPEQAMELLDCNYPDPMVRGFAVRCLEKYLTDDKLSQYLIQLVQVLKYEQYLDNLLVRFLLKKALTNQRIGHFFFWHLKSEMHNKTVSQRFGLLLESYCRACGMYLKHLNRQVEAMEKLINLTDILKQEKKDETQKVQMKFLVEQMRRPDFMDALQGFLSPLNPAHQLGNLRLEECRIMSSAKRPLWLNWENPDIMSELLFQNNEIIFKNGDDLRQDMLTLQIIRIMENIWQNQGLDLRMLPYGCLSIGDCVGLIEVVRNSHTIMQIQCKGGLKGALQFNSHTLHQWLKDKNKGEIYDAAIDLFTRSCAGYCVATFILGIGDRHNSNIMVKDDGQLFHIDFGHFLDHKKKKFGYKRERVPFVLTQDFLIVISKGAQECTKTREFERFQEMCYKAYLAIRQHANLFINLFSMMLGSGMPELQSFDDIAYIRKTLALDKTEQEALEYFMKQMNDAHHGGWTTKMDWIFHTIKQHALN
PI3K-α, sequence (P27986 whole entry partner, species assumed): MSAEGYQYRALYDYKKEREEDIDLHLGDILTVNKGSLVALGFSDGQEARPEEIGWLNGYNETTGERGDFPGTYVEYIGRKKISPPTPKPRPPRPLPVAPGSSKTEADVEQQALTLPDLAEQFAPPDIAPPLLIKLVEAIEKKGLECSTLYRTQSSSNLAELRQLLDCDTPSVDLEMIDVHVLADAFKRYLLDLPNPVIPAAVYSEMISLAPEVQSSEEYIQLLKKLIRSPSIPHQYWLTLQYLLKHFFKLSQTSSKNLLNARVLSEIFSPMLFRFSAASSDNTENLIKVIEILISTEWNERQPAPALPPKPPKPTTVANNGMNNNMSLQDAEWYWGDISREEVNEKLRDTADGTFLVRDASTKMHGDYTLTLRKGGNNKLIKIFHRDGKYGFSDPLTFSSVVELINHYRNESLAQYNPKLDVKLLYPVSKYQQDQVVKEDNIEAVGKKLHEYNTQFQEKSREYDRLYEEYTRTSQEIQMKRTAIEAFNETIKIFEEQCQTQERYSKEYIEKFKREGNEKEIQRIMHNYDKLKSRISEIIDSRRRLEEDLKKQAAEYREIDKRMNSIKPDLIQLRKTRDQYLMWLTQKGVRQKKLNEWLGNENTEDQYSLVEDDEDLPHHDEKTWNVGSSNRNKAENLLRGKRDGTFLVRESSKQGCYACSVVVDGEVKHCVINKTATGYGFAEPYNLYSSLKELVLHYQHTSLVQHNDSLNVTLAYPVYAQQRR

[5] = molecular target: PI3K-γ (Homo sapiens, UniProt P48736); experiment: PI3K-gamma fluorescence polarization assay; conditions: read-out: IC50 PI3Kγ
PI3K-γ, sequence (P48736 whole entry, species assumed): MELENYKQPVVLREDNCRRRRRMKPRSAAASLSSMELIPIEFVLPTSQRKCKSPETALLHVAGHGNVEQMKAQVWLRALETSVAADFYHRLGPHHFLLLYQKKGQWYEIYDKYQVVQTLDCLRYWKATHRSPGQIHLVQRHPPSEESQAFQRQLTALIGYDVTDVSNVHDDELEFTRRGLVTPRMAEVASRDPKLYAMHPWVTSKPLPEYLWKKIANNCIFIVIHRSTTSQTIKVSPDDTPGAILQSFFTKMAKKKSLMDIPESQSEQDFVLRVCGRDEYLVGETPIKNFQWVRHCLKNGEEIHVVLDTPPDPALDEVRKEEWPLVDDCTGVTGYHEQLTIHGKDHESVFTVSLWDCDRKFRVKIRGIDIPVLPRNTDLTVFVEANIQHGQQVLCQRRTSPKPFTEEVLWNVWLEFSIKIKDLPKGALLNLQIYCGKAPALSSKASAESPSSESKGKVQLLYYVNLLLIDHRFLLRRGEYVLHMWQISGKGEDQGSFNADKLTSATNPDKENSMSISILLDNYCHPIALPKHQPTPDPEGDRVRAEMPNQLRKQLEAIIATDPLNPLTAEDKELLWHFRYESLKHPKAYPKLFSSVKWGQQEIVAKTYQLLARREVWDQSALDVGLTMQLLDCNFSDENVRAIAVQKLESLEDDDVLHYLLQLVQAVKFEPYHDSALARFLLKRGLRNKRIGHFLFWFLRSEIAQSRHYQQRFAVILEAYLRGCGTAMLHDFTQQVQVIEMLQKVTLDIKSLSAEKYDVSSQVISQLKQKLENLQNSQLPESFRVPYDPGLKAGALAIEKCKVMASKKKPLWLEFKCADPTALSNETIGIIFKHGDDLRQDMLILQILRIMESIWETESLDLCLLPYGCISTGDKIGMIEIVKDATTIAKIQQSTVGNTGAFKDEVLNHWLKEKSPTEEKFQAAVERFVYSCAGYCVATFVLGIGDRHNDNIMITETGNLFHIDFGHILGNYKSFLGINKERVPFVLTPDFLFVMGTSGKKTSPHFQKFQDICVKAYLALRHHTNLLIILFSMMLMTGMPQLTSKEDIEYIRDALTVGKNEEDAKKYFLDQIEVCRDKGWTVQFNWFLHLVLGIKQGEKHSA

[6] = MDA-MB-361, 72 h, MTS cell growth assay

Human mTOR (FLAG-TOR), sequence (P42345 1360-2549 limits assumed): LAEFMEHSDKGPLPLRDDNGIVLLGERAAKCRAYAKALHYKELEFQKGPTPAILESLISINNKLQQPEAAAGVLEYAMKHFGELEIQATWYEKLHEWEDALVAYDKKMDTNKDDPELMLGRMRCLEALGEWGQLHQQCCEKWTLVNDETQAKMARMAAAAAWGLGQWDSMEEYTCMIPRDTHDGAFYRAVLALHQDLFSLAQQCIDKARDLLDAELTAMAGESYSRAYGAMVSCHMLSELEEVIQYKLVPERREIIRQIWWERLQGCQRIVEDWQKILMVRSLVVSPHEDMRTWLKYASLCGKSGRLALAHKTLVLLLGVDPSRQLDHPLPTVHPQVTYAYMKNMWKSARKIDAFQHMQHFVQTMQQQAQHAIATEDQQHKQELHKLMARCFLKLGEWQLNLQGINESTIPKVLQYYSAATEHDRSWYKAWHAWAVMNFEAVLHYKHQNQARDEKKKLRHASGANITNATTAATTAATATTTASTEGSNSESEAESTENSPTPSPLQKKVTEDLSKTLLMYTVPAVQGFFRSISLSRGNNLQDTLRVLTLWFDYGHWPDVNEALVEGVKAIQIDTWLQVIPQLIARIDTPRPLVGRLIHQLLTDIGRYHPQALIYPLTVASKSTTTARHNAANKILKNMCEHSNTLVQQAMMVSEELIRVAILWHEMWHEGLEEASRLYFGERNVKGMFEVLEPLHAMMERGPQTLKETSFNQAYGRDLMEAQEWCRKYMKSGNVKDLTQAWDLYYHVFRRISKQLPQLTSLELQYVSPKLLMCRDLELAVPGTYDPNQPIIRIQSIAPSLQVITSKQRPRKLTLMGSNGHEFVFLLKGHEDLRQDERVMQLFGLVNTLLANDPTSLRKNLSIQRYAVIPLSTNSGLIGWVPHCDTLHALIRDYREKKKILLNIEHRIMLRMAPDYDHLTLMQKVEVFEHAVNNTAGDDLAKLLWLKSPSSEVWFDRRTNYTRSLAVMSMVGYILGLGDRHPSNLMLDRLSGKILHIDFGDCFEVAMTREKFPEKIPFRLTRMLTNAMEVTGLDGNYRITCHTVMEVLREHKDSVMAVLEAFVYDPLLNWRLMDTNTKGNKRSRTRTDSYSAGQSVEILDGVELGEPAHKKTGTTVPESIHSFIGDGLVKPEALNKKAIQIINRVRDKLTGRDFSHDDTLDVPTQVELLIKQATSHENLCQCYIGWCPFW

IC50 ([2]; 72 h, MTS cell growth assay) [nM]	SMILES	IC50 [1] [nM]	IC50 ([3]; MTS cell growth assay) [nM]	IC50 [4] [nM]	IC50 [5] [nM]	IC50 [2, 6] [nM]	IC50 ([2]; 72 h, MTS) [nM]	IC50 ([3]; MTS) [nM]	IC50 ([2]; MDA-MB-361, 72 h, MTS) [nM]
> 1000	CN1CCN(C(=O)c2ccc(NC(=O)Nc3ccc(-c4nc(NS(=O)(=O)c5ccccc5)nc(N5CCOCC5)n4)cc3)cc2)CC1 [Example 784, N-(4-{4-[({4-[(4-methylpiperazin-1-yl)carbonyl]phenyl}carbamoyl)amino]phenyl}-6-morpholin-4-yl-1,3,5-triazin-2-yl)benzenesulfonamide]	88	> 1000	40.5	174				
> 1000	O=C(Nc1ccc(C(=O)N2CCNCC2)cc1)Nc1ccc(-c2nc(NS(=O)(=O)c3ccccc3)nc(N3CCOCC3)n2)cc1 [Example 785, N-{4-morpholin-4-yl-6-[4-({[4-(piperazin-1-ylcarbonyl)phenyl]carbamoyl}amino)phenyl]-1,3,5-triazin-2-yl}benzenesulfonamide]	55.5	> 1000	6	45.5				
	CN(C)C1CCN(C(=O)c2ccc(NC(=O)Nc3ccc(-c4nc(NS(=O)(=O)c5ccccc5)nc(N5CCOCC5)n4)cc3)cc2)CC1 [Example 786, N-[4-(4-{[(4-{[4-(dimethylamino)piperidin-1-yl]carbonyl}phenyl)carbamoyl]amino}phenyl)-6-morpholin-4-yl-1,3,5-triazin-2-yl]benzenesulfonamide]	89	> 1000	30.5	129	> 1000			
> 1000	CN(C)CCN(C)C(=O)c1ccc(NC(=O)Nc2ccc(-c3nc(NS(=O)(=O)c4ccccc4)nc(N4CCOCC4)n3)cc2)cc1 [Example 787, N-[2-(dimethylamino)ethyl]-N-methyl-4-{[(4-{4-morpholin-4-yl-6-[(phenylsulfonyl)amino]-1,3,5-triazin-2-yl}phenyl)carbamoyl]amino}benzamide]	58.5	> 1000	10.5	146				
> 1000	CN(C)CCNC(=O)c1ccc(NC(=O)Nc2ccc(-c3nc(NS(=O)(=O)c4ccccc4)nc(N4CCOCC4)n3)cc2)cc1 [Example 788, N-[2-(dimethylamino)ethyl]-4-{[(4-{4-morpholin-4-yl-6-[(phenylsulfonyl)amino]-1,3,5-triazin-2-yl}phenyl)carbamoyl]amino}benzamide]	26	> 1000	13	160				
	CN1CCN(C(=O)c2ccc(NC(=O)Nc3ccc(-c4nc(N5CCOCC5)nc(N5C6CCCC5COC6)n4)cc3)cc2)CC1 [Example 792, 1-{4-[(4-methylpiperazin-1-yl)carbonyl]phenyl}-3-{4-[4-morpholin-4-yl-6-(3-oxa-9-azabicyclo[3.3.1]non-9-yl)-1,3,5-triazin-2-yl]phenyl}urea]	0.81	16	3.3	35.5	2			
	O=C(Nc1ccc(C(=O)N2CCNCC2)cc1)Nc1ccc(-c2nc(N3CCOCC3)nc(N3C4CCCC3COC4)n2)cc1 [Example 793, 1-{4-[4-morpholin-4-yl-6-(3-oxa-9-azabicyclo[3.3.1]non-9-yl)-1,3,5-triazin-2-yl]phenyl}-3-[4-(piperazin-1-ylcarbonyl)phenyl]urea]	0.42	26	1	15	2			
	CN(C)C1CCN(C(=O)c2ccc(NC(=O)Nc3ccc(-c4nc(N5CCOCC5)nc(N5C6CCCC5COC6)n4)cc3)cc2)CC1 [Example 794, 1-(4-{[4-(dimethylamino)piperidin-1-yl]carbonyl}phenyl)-3-{4-[4-morpholin-4-yl-6-(3-oxa-9-azabicyclo[3.3.1]non-9-yl)-1,3,5-triazin-2-yl]phenyl}urea]	0.63	20	4.1	26	2			
	CN(C)CCN(C)C(=O)c1ccc(NC(=O)Nc2ccc(-c3nc(N4CCOCC4)nc(N4C5CCCC4COC5)n3)cc2)cc1 [Example 795, N-[2-(dimethylamino)ethyl]-N-methyl-4-[({4-[4-morpholin-4-yl-6-(3-oxa-9-azabicyclo[3.3.1]non-9-yl)-1,3,5-triazin-2-yl]phenyl}carbamoyl)amino]benzamide]	0.425		2.7	26.5		< 3.2	10	
	CN(C)CCNC(=O)c1ccc(NC(=O)Nc2ccc(-c3nc(N4CCOCC4)nc(N4C5CCCC4COC5)n3)cc2)cc1 [Example 796, N-[2-(dimethylamino)ethyl]-4-[({4-[4-morpholin-4-yl-6-(3-oxa-9-azabicyclo[3.3.1]non-9-yl)-1,3,5-triazin-2-yl]phenyl}carbamoyl)amino]benzamide]	0.39		2.6	31.5		2	18	
	COCCNC(=O)c1ccc(NC(=O)Nc2ccc(-c3nc(N4CCOCC4)nc(N4C5CCCC4COC5)n3)cc2)cc1 [Example 797, N-(2-methoxyethyl)-4-[({4-[4-morpholin-4-yl-6-(3-oxa-9-azabicyclo[3.3.1]non-9-yl)-1,3,5-triazin-2-yl]phenyl}carbamoyl)amino]benzamide]	1.3		11.5	76		11	29	
	O=C(Nc1ccc(C(=O)NCCN2CCCC2)cc1)Nc1ccc(-c2nc(N3CCOCC3)nc(N3C4CCCC3COC4)n2)cc1 [Example 798, 4-[({4-[4-morpholin-4-yl-6-(3-oxa-9-azabicyclo[3.3.1]non-9-yl)-1,3,5-triazin-2-yl]phenyl}carbamoyl)amino]-N-(2-pyrrolidin-1-ylethyl)benzamide]	0.445		4.1	43.5		3	24	
	O=C(Nc1ccc(C(=O)NCCN2CCCCC2)cc1)Nc1ccc(-c2nc(N3CCOCC3)nc(N3C4CCCC3COC4)n2)cc1 [Example 799, 4-[({4-[4-morpholin-4-yl-6-(3-oxa-9-azabicyclo[3.3.1]non-9-yl)-1,3,5-triazin-2-yl]phenyl}carbamoyl)amino]-N-(2-piperidin-1-ylethyl)benzamide]	0.5		5	71.5		< 3.2	24	
	O=C(Nc1ccc(C(=O)N2CCC(N3CCCC3)CC2)cc1)Nc1ccc(-c2nc(N3CCOCC3)nc(N3C4CCCC3COC4)n2)cc1 [Example 800, 1-{4-[4-morpholin-4-yl-6-(3-oxa-9-azabicyclo[3.3.1]non-9-yl)-1,3,5-triazin-2-yl]phenyl}-3-{4-[(4-pyrrolidin-1-ylpiperidin-1-yl)carbonyl]phenyl}urea]	0.72		5.5	35.5			11	1
	CN1CCCC1CCNC(=O)c1ccc(NC(=O)Nc2ccc(-c3nc(N4CCOCC4)nc(N4C5CCCC4COC5)n3)cc2)cc1 (centres unmarked) [Example 801, N-[2-(1-methylpyrrolidin-2-yl)ethyl]-4-[({4-[4-morpholin-4-yl-6-(3-oxa-9-azabicyclo[3.3.1]non-9-yl)-1,3,5-triazin-2-yl]phenyl}carbamoyl)amino]benzamide]	0.455		5	38		3	32	
	CNCCN(C)C(=O)c1ccc(NC(=O)Nc2ccc(-c3nc(N4CCOCC4)nc(N4C5CCCC4COC5)n3)cc2)cc1 [Example 802, N-methyl-N-[2-(methylamino)ethyl]-4-[({4-[4-morpholin-4-yl-6-(3-oxa-9-azabicyclo[3.3.1]non-9-yl)-1,3,5-triazin-2-yl]phenyl}carbamoyl)amino]benzamide]	0.675		3.5	23		3	50	
	CCN1CCN(C(=O)c2ccc(NC(=O)Nc3ccc(-c4nc(N5CCOCC5)nc(N5C6CCC5COC6)n4)cc3)cc2)CC1 [Example 803, 1-{4-[(4-ethylpiperazin-1-yl)carbonyl]phenyl}-3-{4-[4-morpholin-4-yl-6-(3-oxa-8-azabicyclo[3.2.1]oct-8-yl)-1,3,5-triazin-2-yl]phenyl}urea]	0.19		3	29			6	1

SMILES	IC50 ([2]; 72 h, MTS cell growth assay) [nM]	IC50 [1] [nM]	IC50 ([3]; MTS cell growth assay) [nM]	IC50 [4] [nM]	IC50 [5] [nM]	IC50 [2, 6] [nM]	IC50 ([2]; 72 h, MTS) [nM]	IC50 ([3]; MTS) [nM]	IC50 ([2]; MDA-MB-361, 72 h, MTS) [nM]
O=C(Nc1ccc(C(=O)NCCc2ccncc2)cc1)Nc1ccc(-c2nc(N3CCOCC3)nc(N3C4COCC3COC4)n2)cc1 [Example 779, 4-[({4-[4-(3,7-dioxa-9-azabicyclo[3.3.1]non-9-yl)-6-morpholin-4-yl-1,3,5-triazin-2-yl]phenyl}carbamoyl)amino]-N-(2-pyridin-4-ylethyl)benzamide]	13	0.23	23	4.2	49.7				
O=C(Nc1ccncc1)Nc1ccc(-c2nc(N3CCOCC3)nc(N3C4CCCC3COC4)n2)cc1 [Example 791, 1-{4-[4-morpholin-4-yl-6-(3-oxa-9-azabicyclo[3.3.1]non-9-yl)-1,3,5-triazin-2-yl]phenyl}-3-pyridin-4-ylurea]	11	0.68	42	12.5	64.5				
